Measurements published in patent publication US8481481B2, “Peptides and their use as carriers into cancer cells” (Advanced Accelerator Applications S.A., priority 2008, dated 2013).
Peptide text beside a SMILES is read from it. * marks the point of attachment. X1 = O=C(C[NH+]1CC[NH2+][Pt-2]1([Cl])[Cl])*

Key:
MCF-7 cells = test: Quantitative determination by atomic absorption of cisplatin transported into tumour cells; type: cell-based, human
Procedure: The target cells MCF-7 were trypsinized, washed twice with buffered solution (PBS) and treated with 50 μl of 35% HNO3 for 16 hours. The platin content was determined by subjecting the samples to atomic absorption with an Analyst 800 instrument, by Perkin-Elmer, Norwalk, Conn., USA, using the following parameters: pre-treatment temperature, 1300° C.; atomization temperature, 2200° C.; using as the matrix modifier a composition of 0.015 mg of […] with 0.01 mg of Mg(NO3)2. The measurements were performed using the “Zeeman-effect background” correction system with Pyrolytic graphite-coated THGA tube (Perkin Elmer) and an integrated Lvov-type platform was used for metal determination. As standard solution we used a 2.5% HNO3 solution (Spectrascan) to obtain three reference points on the calibration curve.

Bax gene, normal cells = test: Bax gene expression in normal cells (FIG. 2); type: cell-based
From the text: FIG. 2 confirms the apoptotic action of the rMnSOD-Lp-CC complex on various cell lines.
In the experiment, actin cDNA was inserted as control of quantitative DNA expression; to note that again in this case (a) indicates untreated cells, (b) indicates cells treated with the leader peptide of rMnSOD (b), and (c) indicates cells treated with the leader peptide conjugated to cisplatin.

[1] = tested on: tumour cell lines (MCF7, M1735, MRC5 and A2780); test: Immunocytochemistry with anti-leader peptide antibody on treated cell lines (FIG. 1); type: cell-based, human; settings: immunohistochemical reaction, three hours of incubation
Procedure: The target cells (MCF-7) in continuous culture, derived from a mammary tumour of human origin, were incubated for three hours in the presence or absence of: (a) 24-amino acid leader peptide of rMnSOD-Lp-CC not conjugated to any other molecules, (b) 24-amino acid leader peptide conjugated to cisplatin.
After incubation, the cells were fixed with Zamboni fixative (solution composed of 4% paraformaldehyde+15% picric acid) for 60 minutes and washed with PBS. The cells were then maintained in PBS containing 0.3% hydrogen peroxide, with the aim of blocking endogenous peroxidases. The polyclonal antibody (anti-leader peptide of rMnSOD obtained from rabbit), diluted 1/200 was then added to the cells and left for 1 hour at ambient temperature. To develop the reaction, a DAKO SLAB Peroxidase K0679 kit was used.

tumour cells = settings: recent study, state of the art; cited from earlier work

Molecule: N.N.[Cl][Pt][Cl] [Cisplatin, cisplatin]
- quantity of Pt, MCF-7 Pellet (MCF-7 cells; MCF-7 Pellet, atomic absorption): 2.3 ng-Pt ng Pt
- quantity of cisplatin, MCF-7 Solution (MCF-7 cells; MCF-7 Solution, atomic absorption): Cisplatin 8.7 μg/l
- quantity of Pt, MCF-7 Solution (MCF-7 cells; MCF-7 Solution, atomic absorption, value in brackets): (3.5 μg Pt)

Molecule: CSCC[C@H](NC(=O)C[NH+]1CC[NH2+][Pt-2]1([Cl])[Cl])C(=O)N[C@@H](CC(C)C)C(=O)N[C@@H](CO)C(=O)N[C@@H](CCCNC(=N)N)C(=O)N[C@@H](C)C(=O)N[C@H](C(=O)N[C@@H](CS)C(=O)NCC(=O)N[C@H](C(=O)N[C@@H](CO)C(=O)N[C@@H](CCCNC(=N)N)C(=O)N[C@@H](CCC(N)=O)C(=O)N[C@@H](CC(C)C)C(=O)N[C@@H](C)C(=O)N1CCC[C@H]1C(=O)N[C@@H](C)C(=O)N[C@@H](CC(C)C)C(=O)NCC(=O)N[C@@H](Cc1ccc(O)cc1)C(=O)N[C@@H](CC(C)C)C(=O)NCC(=O)N[C@@H](CO)C(=O)N[C@@H](CCCNC(=N)N)C(=O)N[C@@H](CCC(N)=O)C(=O)O)[C@@H](C)O)C(C)C (some centres unmarked) [rMnSOD-Lp-CC] (X1-MLSRAVCGTSRQLAPALGYLGSRQ-OH)
- toxic reaction / Bax gene expression (Bax gene, normal cells): does not induce any toxic reaction

Molecule: MLSRAVCGTSRQLAPALGYLGSRQ [leader peptide of rMnSOD]
- penetration into tumour cells / cell damage [1]: penetrated tumour cells without damaging the cells
- quantity of cisplatin transported into cells relative to cisplatin alone (MCF-7 cells; tumour cells, Table 1): double

B1: LSA-type-MnSOD: manganese superoxide dismutase secreted by a liposarcoma cell line, 30 kDa (protein, UniProt P04179 25-222, looked up)
Superoxide dismutase [Mn], …: KHSLPDLPYDYGALEPHINAQIMQLHHSKHHAAYVNNLNVTEEKYQEALAKGDVTAQIALQPALKFNGGGHINHSIFWTNLSPNGGGEPKGELLEAIKRDFGSFDKFKEKLTAASVGVQGSGWGWLGFNKERGHLQIAACPNQDPLQGTTGLIPLLGIDVWEHAYYLQYKNVRPDYLKAIWNVINWENVTERYMACKK
- cytotoxicity to tumour cells (tumour cells): cytotoxic specifically and selectively to tumour cells

B2: rMnSOD: recombinant form of LSA-type-MnSOD produced by specific cDNA clones (protein, UniProt P04179 25-222, looked up)
Superoxide dismutase [Mn], …: B1 Superoxide dismutase [Mn], …
- cytotoxicity to tumour cells (tumour cells): retain the structural and oncotoxic properties of the native protein
